Entries after “also recorded” stand apart in the source; their conditions may differ. Where two headings read alike, the source gives them in different places.
What was measured:
[1] = target: Recombinant hCyp18 PPIase activity (Homo sapiens, UniProt P62937); experiment: Cyp18 PPIase activity, protease coupled assay; type: biochemical
Experimental: The PPIase activity was measured at 7 °C with a protease coupled assay on a Hewlett-Packard 8452a diode array spectrophotometer (Fischer et al., 1984). To 1220 µl Hepes buffer pH 7.8, Cyp18 and inhibitor of desired concentration are added. After 10 min of incubation, protease and substrate were added. The final substrate concentration is 40 µM in 1280 µl. The cis/trans isomerization was monitor at 390 nm with 510 nm as a reference. The rate is calculated according to first order reaction. Recombinant hCyp18 PPIase activity was measured with the peptide Suc-Ala-Phe-Pro-Phe-NH-Np as substrate. The substrate was dissolved in DMSO (10 mg/ml). α-Chymotrypsin was used as auxiliary protease. The residual enzymatic activity was plotted versus the inhibitor concentration and used for calculating the inhibitor constants Ki as described before (Schutkowski et al., 1995).
PPIase activities are measured with a protease coupled assay, using Suc-Ala-Phe-Pro-Phe-NH-Np as substrate and chymotrypsin as auxiliary protease, in 35 mM HEPES buffer pH 7.8, at 7 °C. Cyp18 concentration is 2.5 nM. […] Irradiations have been performed with light of 740 nm for 45 min. […]

[2] = target: calcineurin (CaN) phosphatase activity (Homo sapiens, UniProt P62937+P63098+Q08209); experiment: Calcineurin (CaN) phosphatase activity inhibition assay in the presence of Cyp18; conditions: for change of CaN inhibition between cis and trans forms / upon light irradiation: in the presence of Cyp18, absence of SA
Experimental: The reaction mixture containing 700 µM peptide, 0.2 µM cAMP, 100 µCi[γ-^33P]ATP and 10 kU PKA in a final volume of 100 µl in the buffer (containing 20 mM MES, pH 6.5, 0.4 mM EDTA, 0.2 mM EGTA, 50 µM CaCl2 and 2 mM MgCl2) was incubated for one hour at 30 °C. The phosphorylated peptides were separated from unincorporated labeled ATP by 1 ml RP-C2 clean up extraction column (Amchro, Sulzbach, Germany). The eluted peptide (with 70% acetonitrile) was lyophilized and reconstituted with de-ionized water.
The scintillation proximity concept has been applied for measuring calcineurin activity using ScintiPlate wells coated with streptavidin. […] Biotinylated [γ-^33P] RII peptide was added to a final concentration of 100 nM and the total assay volume is 100 µl. After incubation at 30 °C for 30 min, 90 µl of the reaction mixture was transferred to the ScintiPlate well coated with streptavidin. The streptavidin immobilizes the biotinylated RII peptide on the wells. After 20 min at 22 °C the well was washed once with water and the RII associated [γ-^33P] was measured in the top-counter MicroBeta (Wallac, Turku, Finland).

CaN and Cyp18 = experiment: Cross-linking (BS3) of CaN and Cyp18 in treated Jurkat cells, anti-CaN blot; type: cell-based, human
Experimental: Cells were lysed and the clear supernatants were incubated with calmodulin sepharose. Cross-linking reagent BS^3 was added to the EDTA eluates. After TCA precipitation, the samples were separated by SDS-PAGE and probed with anti-CaN antibody and detected by enhanced chemiluminescent reaction.

[3] = target: Cyp18/CsA-AB-CsA/Cyp18 tertiary complex (Homo sapiens, UniProt P62937); experiment: Coprecipitation of His4-Cyp18 with GST-Cyp18 matrix on glutathione-Sepharose; type: binding
Sequence of Cyp18/CsA-AB-CsA/Cyp18 tertiary complex (P62937 whole entry, one chain of several): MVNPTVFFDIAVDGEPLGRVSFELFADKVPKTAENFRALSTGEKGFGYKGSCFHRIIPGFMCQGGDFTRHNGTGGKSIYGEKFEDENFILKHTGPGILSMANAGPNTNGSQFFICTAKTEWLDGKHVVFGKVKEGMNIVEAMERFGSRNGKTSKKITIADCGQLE
Text: The proteins were eluted by boiling with sample buffer and separated by SDS-PAGE, transferred onto nitrocellulose membrane and probed with anti-His and anti-GST antibodies.

Sequence of Recombinant hCyp18 PPIase activity (P62937 whole entry): as the sequence (P62937 whole entry, one chain of several) above

| Structure (SMILES) | IC50 ([1]; IC50, inhibition of Cyp18 PPIase activity, cis isomer bound to the borrowed protein SA (4 equivalents)) | IC50 ([1]; IC50, inhibition of Cyp18 PPIase activity, irradiated, cis, absence of SA, Cyp18 2.5 nM, 7 °C) | IC50 ([1]; IC50, inhibition of Cyp18 PPIase activity, non-irradiated, trans, absence of SA, Cyp18 2.5 nM, 7 °C) | IC50 ([1]; IC50, inhibition of Cyp18 PPIase activity, trans isomer bound to the borrowed protein SA (4 equivalents)) | trans/cis difference of activity in CaN inhibition assay ([2]; absence of SA) | change of CaN inhibition between cis and trans forms / upon light irradiation [2] | IC50, CaN inhibition ([2]; non-irradiated (trans), in the presence of SA) | inhibition at 10 µM ([2]; read-out: CaN inhibition) | cross-linking between CaN and Cyp18 (CaN and Cyp18; absence of SA, conjugate in photoswitched cis form) | cross-linked CaN-Cyp18-SA (CaN and Cyp18; cells transfected with SA, cis) | cross-linking between CaN and Cyp18 (CaN and Cyp18; cells transfected with SA, non-irradiated trans) | interaction of the Cyp18-trans-CsA-AB-Biotin-SA complex with CaN (CaN and Cyp18; cells transfected with SA, trans) | coprecipitation of His4-Cyp18 with GST-Cyp18 ([3]; photoswitched cis (irradiated)) | coprecipitation of His4-Cyp18 with GST-Cyp18 ([3]; trans (non-irradiated)) | increase of inhibitory potency towards the PPIase activity of Cyp18, cis compared to trans ([1]; irradiated cis vs non-irradiated trans) | Cyp18 inhibitory profile after thermal cis to trans isomerization ([1]; irradiated sample kept in darkness overnight at room temperature) | IC50 ([1]; irradiated, cis, absence of SA, Cyp18 2.5 nM, 7 °C, read-out: IC50, inhibition of Cyp18 PPIase activity) | IC50 ([1]; non-irradiated, trans, absence of SA, Cyp18 2.5 nM, 7 °C, read-out: IC50, inhibition of Cyp18 PPIase activity) |
| --- | --- | --- | --- | --- | --- | --- | --- | --- | --- | --- | --- | --- | --- | --- | --- | --- | --- | --- |
| C/C=C/C[C@@H](C)[C@@H](O)[C@H]1C(=O)N[C@@H](CC)C(=O)N(C)CC(=O)N(C)[C@@H](CC(C)C)C(=O)N[C@@H](C(C)C)C(=O)N(C)[C@@H](CC(C)C)C(=O)N[C@@H](C)C(=O)N[C@H](COCC(=O)Nc2ccc(N=Nc3ccc(NC(=O)CCCC[C@@H]4SC[C@@H]5NC(=O)N[C@@H]54)cc3)cc2)C(=O)N(C)[C@@H](CC(C)C)C(=O)N(C)[C@@H](CC(C)C)C(=O)N(C)[C@@H](C(C)C)C(=O)N1C [CsA-AB-Biotin] | 4.45 ± 0.55 nM | 2.21 ± 0.02 nM | 2.96 ± 0.68 nM | 9.37 ± 0.75 nM | 1.4 | only a minor change | too high to be determined precisely | 30% | intensive cross-linking | detected only in sample treated with cis-CsA-AB-Biotin; also recorded: can only be detected in samples treated with cis-CsA-AB-Biotin | weakest cross-linking effect | does not interact with CaN |  |  |  |  |  |  |
| C/C=C/C[C@@H](C)[C@@H](O)[C@H]1C(=O)N[C@@H](CC)C(=O)N(C)CC(=O)N(C)[C@@H](CC(C)C)C(=O)N[C@@H](C(C)C)C(=O)N(C)[C@@H](CC(C)C)C(=O)N[C@@H](C)C(=O)N[C@H](COCC(=O)Nc2ccc(N=Nc3ccc(NC(=O)COC[C@H]4NC(=O)[C@H](C)NC(=O)[C@H](CC(C)C)N(C)C(=O)[C@H](C(C)C)NC(=O)[C@H](CC(C)C)N(C)C(=O)CN(C)C(=O)[C@H](CC)NC(=O)[C@H]([C@H](O)[C@H](C)C/C=C/C)N(C)C(=O)[C@H](C(C)C)N(C)C(=O)[C@H](CC(C)C)N(C)C(=O)[C@H](CC(C)C)N(C)C4=O)cc3)cc2)C(=O)N(C)[C@@H](CC(C)C)C(=O)N(C)[C@@H](CC(C)C)C(=O)N(C)[C@@H](C(C)C)C(=O)N1C [CsA-AB-CsA] |  |  |  |  |  | significant increase |  |  |  |  |  |  | coprecipitated together with GST-Cyp18 | only a minor amount | 7 fold | reversed | 30 ± 3 nM | 206 ± 22 nM |
